This assay deals with murine NIH 3T3 cells. The experiment in a line: Growth inhibitory effects of prodrugs on NIH 3T3 cells in culture, with or without esterase-containing brain homogenate. In kind it is cell-based. Here is the method: The antifolate drug methotrexate was conjugated with a variety of polar lipid carriers via specific linker moieties having specific reactive functional groups. […] The compounds were tested for their growth inhibitory effects on murine NIH 3T3 cells growing in cell culture. […] […] In a second set of experiments was included in the growth media an amount of a brain homogenate containing an enzymatically-active esterase.

Regarding `CN(Cc1cnc2nc(N)nc(N)c2n1)c1ccc(C(=O)N[C@@H](CCC(=O)O)C(=O)O)cc1` [Mtx, methotrexate], the “# cells/plate” value is, setting by setting: (drug/FBS, cells incubated 1 hour at 37° C., cell growth and survival determined 70 hours after drug addition) 0.16 × 10^6 cells/plate; (drug/FBS, cells incubated 2 hours at 37° C., cell growth and survival determined 72 hours after drug addition) 0.13 × 10^6 cells/plate; (drug/brain extract, cells incubated 1 hour at 37° C., cell growth and survival determined 70 hours after drug addition) 0.09 × 10^6 cells/plate; (drug/brain extract, cells incubated 2 hours at 37° C., cell growth and survival determined 72 hours after drug addition) 0.06 × 10^6 cells/plate.

The values above are taken from patent US7423010B2, “Nonporous microparticle-prodrug conjugates for treatment of infection” (Oregon Health & Science University, priority 1994, dated 2008).
